# Legend:
# [1] = test system: sera from four Rhesus Monkeys given live HIV-1; test: ELISA of sera from Rhesus monkeys given live HIV-1 for antibodies to p17 peptides (Figure 5); type: binding; details: result in words
# Text: • Figure 1 is a schematic drawing illustrating the proposed orientation for the p17 gag protein of HIV; • Figure 2 is a chart depicting the primary amino acid sequences of HIV-1 p17 (strain HB10) and also of the p17 proteins of HIV-2 and SIV; • Figure 3 is another chart depicting the primary amino acid sequence of the peptides in p17; • Figure 4 is a graph plotting antibody titers of HIV p17 peptides in rabbits immunized with native HIV p17; and • Figure 5 is a bar graph illustrating the results of ELISA analysis of sera from 4 Rhesus monkeys exposed to live HIV antibodies to the p17 peptide fragments of this invention.
# In another test, sera from four Rhesus Monkeys given live HIV-1 were also evaluated for antibodies to Peptides A, B, C, D and E and the results are shown in Figure 5. […] Sera from individuals who had been naturally exposed to the HIV virus and were seropositive for p17 were also evaluated.
# [2] = test system: antibodies of a rabbit immunized with native (intact) HIV p17; test: Antibody titers to p17 peptides in a rabbit immunized with native HIV p17 (Figure 4); type: binding; details: rabbit immunized with HPLC-purified native HIV p17, synthetic peptide analogs, result in words
Substance,antibody response [1],antibody titers [2]
"Peptide A: p17 gag HIV protein fragment, positions 1-32, formula (II); sequence only in image I00003 (GARASVLSGGELDRWEKIRLRPGGKKKYKLKH; Matrix protein p17; UniProt P04591 2-33, looked up, fragment)",strong antibody response in at least one of the challenged monkeys,
"Peptide B: p17 gag HIV protein fragment, positions 33-50, formula (III); sequence only in image I00004 (IVWASRELERFAVNPGLL; Matrix protein p17; UniProt P04591 34-51, looked up, fragment)",strong antibody response in at least one of the challenged monkeys,
"Peptide C: p17 gag HIV protein fragment, positions 51-84, formula (IV); sequence only in image I00005 (ETSEGCRQILGQLQPSLQTGSEELRSLYNTVATL; Matrix protein p17; UniProt P04591 52-85, looked up, fragment)",strong antibody response in at least one of the challenged monkeys,highest titers
